Numbers after ± are expanded uncertainties.
Legend:
[1] = Molar enthalpy of transition or fusion; conditions: Crystal; DSC
[2] = Solid-liquid equilibrium temperature; conditions: 101 kPa; Crystal; DTA

In the case of `CCc1ccc2c(c1)C(=O)c1ccccc1C2=O` [2-ethyl-9,10-anthracenedione], the “Molar enthalpy of transition or fusion” value [1] is reported as 4.49 ± 1.2 kcal/mol and the Solid-liquid equilibrium temperature [2] is reported as 384.15 ± 0.25 K.
